# From patent publication US4746664A, “Substituted-3,4-dihydro-4-(2,4,6-trimethoxyphenylimino)-2(1H)-pyrimidone s useful as cardiotonic, antihypertensive, cerebrovascular vasodilator and anti-platelet agent” (Fujisawa Pharmaceutical Co., Ltd., priority 1983, dated 1988)
# Where a name gives a salt, the structure may show the parent alone.
# Experiments:
# [1] = tested on: Mongrel dogs (left ventricular pressure, dp/dt max); test: Cardiotonic activity (dp/dt max change, anesthetized dogs, i.v.); format: in vivo; conditions: Canis lupus familiaris, intravenous, read-out: dp/dt M.C. (percentage of dp/dt max changes)
# Experimental: Test Method A (Cardiotonic activity): Mongrel dogs of either sex were anesthetized with sodium pentobarbital, 35 mg/kg, i.p. The animals were allowed to breathe spontaneously. The left carotid artery was isolated and a catheter (USCI, #8F) filled with heparinized saline was inserted and advanced into the left ventricle. the catheter was connected to a pressure transducer (Nihonkohden, MPU-0.5A) to measure the left ventricular pressure, from which dp/dt max was derived by analog computing. To measure the systemic blood pressure the left femoral artery was cannulated. The blood pressure pulse was used to trigger a heart rate meter. Another catheter was positioned in the vena cave through right femoral vein for injection of drugs. Systemic blood pressure, left ventricular pressure, dp/dt max and heart rate were recorded simultaneously on a polygram (Nihonkohden, RJG-4008). Test compound was dissolved in distilled water (0.2 ml/kg) or dimethyl sulfoxide (0.04 ml/kg) and injected into the femoral veing. The parameters after dosing were compared with those during the predosing period. Test results were represented in terms of percentage of dp/dt max changes (dp/dt M.C) calculated by following formula, and are shown in table 1. [formula]
# [2] = tested on: Mongrel dogs (cerebral blood flow); test: Cerebrovascular vasodilative activity (cerebral blood flow, anesthetized dogs, i.v.); format: in vivo; conditions: intravenous
# Experimental: Test Method C (Cerebrovescular vasodilative activity):
# Mongrel dogs of either sex were anesthetized with sodium pentobarbital (35 mg/kg. i.p.). After the external carotid artery was ligated, a flowmeter probe was fitted to the common carotid artery. Polyethylene cannulas were inserted in the femoral artery for measurement of blood pressure and in the saphenous vein for injection of drug. Blood pressure was measured with a pressure transducer and the arterial pulse was also used to trigger a heart rate meter. Blood pressure, heart rate and cerebral blood flow (C.B.F.) were recorded on a polygraph.
# Test compound was dissolved in an equimolar solution of hydrochloric acid and diluted with water (0.2 ml/kg), and injected intravenously. The prarmeters after dosing were compared with those during the predosing period.
# [3] = tested on: platelet aggregation induced by adenosine diphosphate (ADP); test: Anti-platelet activity: ADP-induced aggregation of rabbit platelet rich plasma; format: cell-based; conditions: Oryctolagus cuniculus, 2 min, rabbit PRP, ADP 2.5 μM, pH 7.4, 37° C., read-out: ID50 ADP
# Experimental: (§1) Test Method B (Anti-platellet activity):
# (§2) Platelet rich plasma (PRP) which contains 6.5-7.5×10^8 platelet/ml was prepared from rabbit blood. To the 200 μl of PRP, 5 μl of calcium chloride (1 mM) and 50 μl of pH 7.4 Tris-acetate solution (5 mM) containing 120 mM NaCl and test compound were added successively, and then stirred for 2 min. at 37° C. To the solution, 5 μl of adenosine diphosphate (ADP) (2.5 μM) or collagen (2.5 μg/ml) was added as an aggregation inducer. Aggregation was measured by using an aggregometer (NKK HEMA TRACER 1).
# [4] = tested on: platelet aggregation induced by collagen; test: Anti-platelet activity: collagen-induced aggregation of rabbit platelet rich plasma; format: cell-based; conditions: Oryctolagus cuniculus, 2 min, rabbit PRP, collagen 2.5 μg/ml, pH 7.4, 37° C., read-out: ID50 Collagen
# Experimental: as §1, §2
# [5] = tested on: uninephrectomized DOCA/saline male Wistar rats (mean arterial pressure); test: Antihypertensive activity (DOCA hypertensive rats, oral); format: in vivo; conditions: 1.0 mg/kg
# Experimental: Test Method D (Antihypertensive activity):
# Five-week old male Wistar rats were uninephrectomized under anesthesia. Deoxycorticosterone acetate (DOCA) (30 mg/kg), suspended in peanut oil, was injected subcutaneously twice a week and 1% saline was substituted for the drinking water. Animals with mean blood pressure 150-200 mmHg were used for experiment between 5 and 7 weeks after surgery.
# The test compounds were administered orally. Blood pressure was measured at the femoral artery by means of a pressure transducer and recorded as electrically integrated values of mean arterial pressure.
Compound,change in vivo at 0.1 mg/kg [1],change in vivo at 1 mg/kg [1],C.B.F. increase ([2]; 0.1 mg/kg),IC50 [3],IC50 [4],further results
"COc1ccc(-c2cc(=Nc3cc(OC)c(OC)c(OC)c3)n(C)c(=O)n2C)cc1OC [Example 56, 3,4-Dihydro-6-(3,4-dimethoxyphenyl)-1,3-dimethyl-4-(3,4,5-trimethoxyphenylimino)-2(1H)-pyrimidinone]",44%,88%,50.0%,,,C.B.F. increase ([2]; 1.0 mg/kg): 52.0%
"COc1ccc(-c2cc(=Nc3ccc(O)cc3)n(C)c(=O)n2C)cc1OC [Example 59, 3,4-Dihydro-6-(3,4-dimethoxyphenyl)-1,3-dimethyl-4-(4-hydroxyphenylimino)-2(1H)-pyrimidinone]",57%,158%,,3600 nM,230 nM,
"CCCn1c(-c2ccc(OC)c(OC)c2)cc(=Nc2c(C)cc(C)cc2C)n(C)c1=O [Example 65, 3,4-Dihydro-6-(3,4-dimethoxyphenyl)-3-methyl-1-n-propyl-4-(2,4,6-trimethylphenylimino)-2(1H)-pyrimidinone]",50%,206%,,,,
"Nc1cc(-c2ccncc2)c[nH]c1=O [Amrinone, 3-Amino-5-(4-pyridyl)-2(1H)-pyridinone, reference compound]",9%,80%,,,,
"COc1ccc(-c2cc(=Nc3c(C)cc(C)cc3C)n(C)c(=O)n2C)cc1 [Example 62, 3,4-Dihydro-1,3-dimethyl-6-(4-methoxyphenyl)-4-(2,4,6-trimethylphenylimino)-2(1H)-pyrimidinone]",,102%,,,,
"COc1ccc(-c2cc(=Nc3ccc(Cl)cc3C)n(C)c(=O)n2C)cc1OC [Example 49, 4-(4-Chloro-2-methylphenylimino)-3,4-dihydro-6-(3,4-dimethoxyphenyl)-1,3-dimethyl-2(1H)-pyrimidinone]",68%,,,,,
"COc1ccc(-c2cc(=Nc3ccccc3)n(C)c(=O)n2C)cc1OC [Example 55, 3,4-Dihydro-6-(3,4-dimethoxyphenyl)-1,3-dimethyl-4-phenylimino-2(1H)-pyrimidinone]",,,38.0%,,,C.B.F. increase ([2]; 1.0 mg/kg): 77.0%
"COc1ccc(-c2cc(=Nc3c(C)cccc3C)n(C)c(=O)n2C)cc1OC [Example 58, 3,4-Dihydro-6-(3,4-dimethoxyphenyl)-1,3-dimethyl-4-(2,6-dimethylphenylimino)-2(1H)-pyrimidinone]",84%,145%,,340 nM,190 nM,
"COc1ccc(-c2cc(=Nc3c(C)cc(C)cc3C)n(C)c(=O)n2C)cc1OC [Example 48, 3,4-dihydro-6-(3,4-dimethoxyphenyl)-1,3-dimethyl-4-(2,4,6-trimethylphenylimino)-2(1H)-pyrimidinone]",,,57.0%,240 nM,150 nM,change in vivo at 0.01 mg/kg [1]: 43%; C.B.F. increase ([2]; 0.01 mg/kg): 40.0%
"COc1ccc(-c2cc(=Nc3c(C)cc(C)cc3C)n(C)c(=O)[nH]2)cc1OC [Example 64, 3,4-Dihydro-6-(3,4-dimethoxyphenyl)-3-methyl-4-(2,4,6-trimethylphenylimino)-2(1H)-pyrimidinone]",98%,93%,,,,
"CCn1c(-c2ccc(OC)c(OC)c2)cc(=Nc2c(C)cc(C)cc2C)n(C)c1=O [Example 72, 3,4-dihydro-6-(3,4-dimethoxyphenyl)-1-ethyl-3-methyl-4-(2,4,6-trimethylphenylimino)-2(1H)-pyrimidinone]",95%,,35.0%,790 nM,170 nM,change in vivo at 0.01 mg/kg [1]: 12%; C.B.F. increase ([2]; 1.0 mg/kg): 59.0%; Effect Max (maximum decrease of blood pressure) [5]: 38.0%
"COc1cc(OC)c(N=c2cc(-c3ccc(OC)c(OC)c3)n(C)c(=O)n2C)c(OC)c1 [Example 57, 3,4-Dihydro-6-(3,4-dimethoxyphenyl)-1,3-dimethyl-4-(2,4,6-trimethoxyphenylimino)-2(1H)-pyrimidinone]",60%,126%,57.0%,300 nM,420 nM,C.B.F. increase ([2]; 0.01 mg/kg): 59.0%; Effect Max (maximum decrease of blood pressure) [5]: 44.0%
"COc1ccc(-c2cc(=Nc3cccnc3)n(C)c(=O)n2C)cc1OC [Example 50, 3,4-dihydro-6-(3,4-dimethoxyphenyl)-1,3-dimethyl-4-(3-pyridylimino)-2(1H)-pyrimidinone dihydrochloride]",,98%,,,,
"COc1ccc(-c2cc(=Nc3c(C)cc(C)cc3C)[nH]c(=O)n2C)cc1OC [Example 69, 3,4-Dihydro-6-(3,4-dimethoxyphenyl)-1-methyl-4-(2,4,6-trimethylphenylimino)-2(1H)-pyrimidinone]",42%,,,,,change in vivo at 0.01 mg/kg [1]: 45%
